The record followed here is PubChem BioAssay (NCI).

Molecules are shown by their SMILES.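 Five concentrations, 48 hours, 96-well plates. TGI: total growth inhibition.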

Holding throughout (assay): NCI anticancer screen, dose series, 48 h
Assay [1] has as its system NCI-H23 lung.
Assay [2] deals with SNB-19 CNS.
The test system of assay [3] is SK-MEL-5 melanoma.
Assay [4] concerns TK-10 renal.
Assay [5] relates to HCT-116 colon.
For assay [6], the system named is LOX IMVI melanoma.
In assay [7] the test system is KM12 colon.
For assay [8], the system named is OVCAR-3 ovarian.

Regarding `COc1c(OC2OC(CO)C(O)C(O)C2O)cc2c(c1OC)-c1ccc(OC)c(=O)cc1[C@@H](NC(C)=O)CC2` (some centres undefined), the TGI in assay [1] was above 100 µM; in assay [2], above 100 µM; in assay [3], above 94.5 µM; in assay [4], above 100 µM; in assay [5], above 100 µM; in assay [6], above 100 µM. Also, the values for the TGI in assay [7] and in assay [8] were above 100 µM and above 96.6 µM, respectively.
In the case of `COC(=O)C(C(=O)C(=O)Nc1ccc(N)cc1[N+](=O)[O-])c1nc2ccc(Cl)cc2[nH]c1=O` (centres undefined), the TGI in assay [1], in assay [2], in assay [3], in assay [4], in assay [5] and in assay [6] was above 100 µM in each case. For the same compound, the TGI in assay [7] and in assay [8] was above 100 µM throughout.
Turning to `CC(=O)OC1(C#N)CC2OC1C1NC21` (centres undefined), the TGI in assay [1], in assay [2], in assay [3], in assay [4], in assay [5] and in assay [6] was above 100 µM each time.
Take `NNC(=O)N/N=C1/C(=O)N(c2ccc(Cl)c(Cl)c2)C(=O)C(=O)C1c1nc2ccccc2o1` (centres undefined): the TGI in assay [1], in assay [2], in assay [3], in assay [4], in assay [5] and in assay [6] was above 100 µM throughout. This compound came in with a TGI in assay [8] above 100 µM.
With `O=C(OCc1ccccc1)c1ccccc1-c1c2ccc(=O)cc-2oc2cc(OCc3ccccc3)ccc12`, the TGI in assay [1] was 49.6 µM; in assay [2], above 100 µM; in assay [3], 17.8 µM; in assay [5], 57.7 µM; in assay [6], 21.2 µM; in assay [7], 31.3 µM. Also, the TGI in assay [8] was determined as 59.1 µM.
For `C(=NCCN=Cc1cccc2ccccc12)c1cccc2ccccc12`, the TGI in assay [1], in assay [2], in assay [3], in assay [4], in assay [5] and in assay [7] was above 100 µM throughout.
`C#Cc1ccccc1N1C(=O)C=CC1=O`: the TGI in assay [1], in assay [2], in assay [3], in assay [4], in assay [5] and in assay [8] was above 100 µM in each case.
Consider `Cc1ccc(NC(=O)CC2C(=O)Nc3ccccc3S2(=O)=O)cc1C` (centres undefined), for which the TGI in assay [1], in assay [2], in assay [3], in assay [4], in assay [5] and in assay [6] was above 100 µM each time. This compound came in with a TGI in assay [8] above 100 µM.
On to `NC(C(=O)O)c1ccc(C(=O)O)cc1` (centres undefined), for which the TGI in assay [1], in assay [2], in assay [3], in assay [4], in assay [6] and in assay [7] was above 100 µM in each case. Besides, the TGI in assay [8] was above 100 µM.
With `Cc1c(C(=O)Nc2ccc(Cl)cc2)nc(N)nc1-c1cccc(Cl)c1`, the TGI in assay [1], in assay [2], in assay [3], in assay [5], in assay [7] and in assay [8] was above 100 µM each time.
In the case of `CCN(CC)c1ccc(N=C2C=CC(=C(C#N)C#N)c3ccccc32)c(C)c1`, the TGI stood at 3.33 µM in assay [1]; 13.1 µM in assay [2]; 2.92 µM in assay [3]; 9.58 µM in assay [4]; 5.8 µM in assay [5]; 4.75 µM in assay [6]. In addition, the TGI in assay [8] worked out at 3.82 µM.
Turning to `O=C1OC(=O)C2C1C1C(c3ccccc3)=C(c3ccccc3)C2(O)C2C(=O)OC(=O)C12` (centres undefined), the TGI in assay [1], in assay [2], in assay [4], in assay [5], in assay [7] and in assay [8] was above 100 µM throughout.
Regarding `CCc1cccc(CC)c1NC(=O)C1=CNC(C)=C(C(=O)Nc2c(CC)cccc2CC)C1c1ccc(O)c(OC)c1` (centres undefined), the TGI in assay [1] is above 100 µM; in assay [2] it was above 100 µM; in assay [3] it was above 100 µM; in assay [4] it was above 100 µM; in assay [6], above 100 µM; in assay [7], 87.4 µM. This compound registered a TGI in assay [8] of 53.9 µM.
For the compound `C/C(=N\NS(=O)(=O)c1ccccc1)c1ccc[n+]([O-])n1`, the TGI in assay [1], in assay [2], in assay [3], in assay [5], in assay [7] and in assay [8] was above 100 µM each time.
Take `COc1ccc(S(=O)(=O)N/N=C/CN2C(=O)c3ccccc3C2=O)cc1`: the TGI in assay [1], in assay [2], in assay [3], in assay [6] and in assay [7] was above 100 µM throughout.
